Reference: article PMC5053523, “In Vitro Antibacterial Activity of Rhodanine Derivatives against Pathogenic Clinical Isolates” (PLoS ONE, 2016)
Converted amounts (≈) assume the structure as drawn. Where two headings read alike, the source gives them in different places.

How the values were obtained:
B. cereus = assay: Broth microdilution MIC/MBC, B. cereus; assay type: cell-based; conditions: Bacillus cereus; for MBC: read-out: MBC; for MIC: read-out: MIC
Source text: The broth microdilution technique was used, followed by subculturing on agar plates that were rhodanine—free.

[1] = test system: vancomycin resistant enterococci (VRE) E. faecium; assay: Broth microdilution MIC/MBC, VRE E. faecium; assay type: cell-based; conditions: for MIC: read-out: MIC
Escherichia coli Δ acrAB = assay: MIC against E. coli 1411 and AcrAB efflux pump deficient E. coli SM1411Δ acrAB; assay type: cell-based
Method: (§1) The MIC of the rhodanines and control antibiotics, in the presence of a sub-inhibitory concentration of colistin or polymixin B nonapeptide (PMBN), against Gram-negative bacteria was evaluated as described before. The antibacterial activity of the rhodanines was further investigated against E. coli SM1411Δ acrAB, a strain that is deficient in the multidrug-resistant AcrAB efflux pump, as described before.

Escherichia coli O157:H7 = assay: MIC with/without PMBN, Escherichia coli O157:H7; assay type: cell-based
Method: as §1

Bacillus Strains = assay: Broth microdilution MIC50/MIC90 and MIC range, Bacillus strains panel; assay type: cell-based, Bacillus spp.; conditions: 10 Bacillus strains
Source text: The broth microdilution technique was used, followed by subculturing on agar plates that were rhodanine—free. […] The MICs reported represent the lowest concentration of each compound necessary to inhibit bacterial growth and the MBCs represent the lowest concentration required to reduce the initial bacterial inoculum by ≥ 99.9%.

Salmonella Typhimurium = assay: MIC with/without PMBN, Salmonella Typhimurium; assay type: cell-based
Method: as §1

Mycobacterium smegmatis = assay: Broth microdilution MIC/MBC, Mycobacterium smegmatis; assay type: cell-based; conditions: Mycolicibacterium smegmatis, ATCC14468, M. Smegmatis ATCC 14468
[2] = test system: vancomycin resistant enterococci (VRE) E. faecalis; assay: Broth microdilution MIC/MBC, VRE E. faecalis; assay type: cell-based; conditions: for MIC: read-out: MIC
[3] = NRS201, B. cereus NRS 201 NR-2488
[4] = E. faecium HM 968 Strain ERV102
[5] = E. faecium NR31914 Strain E0120
[6] = E. faecium Patient #1–1 NR-31903
[7] = E. faecalis NR31972 Strain SF 28073

## CC(=O)NC[C@H]1CN(c2ccc(N3CCOCC3)c(F)c2)C(=O)O1 [Linezolid, linezolid, reference compound]
B. cereus; B. cereus BAG1O-2 NR-28582
  MBC: 2 µM (≈ 0.675 µg/mL)
  MIC: 2 µM (≈ 0.675 µg/mL)
B. cereus; B. cereus BAG1X1-1 NR-28575
  MBC: 1 µM (≈ 0.337 µg/mL)
  MIC: < 0.5 µM
B. cereus; B. cereus BAG1X2-1 NR-28578
  MBC: 2 µM (≈ 0.675 µg/mL)
  MIC: 1 µM (≈ 0.337 µg/mL)
B. cereus; B. cereus G9241 NR-9564
  MBC: 1 µM (≈ 0.337 µg/mL)
  MIC: 1 µM (≈ 0.337 µg/mL)
B. cereus; B. cereus VD014 NR-22141
  MBC: 4 µM (≈ 1.35 µg/mL)
  MIC: 2 µM (≈ 0.675 µg/mL)
B. cereus; B. cereus VD115 NR-22148
  MBC: 1 µM (≈ 0.337 µg/mL)
  MIC: < 0.5 µM
B. cereus; B. cereus VD148 NR-22150
  MBC: 2 µM (≈ 0.675 µg/mL)
  MIC: 2 µM (≈ 0.675 µg/mL)
B. cereus; [3]
  MBC: 4 µM (≈ 1.35 µg/mL)
  MIC: 2 µM (≈ 0.675 µg/mL)
[1]; E. faecium E417 HM-965
  MBC: > 64 µM
  MIC: 2 µM (≈ 0.675 µg/mL)
[1]; E. faecium E1071 NR-28978
  MBC: > 64 µM
  MIC: 2 µM (≈ 0.675 µg/mL)
[1]; [4]
  MBC: > 64 µM
  MIC: 2 µM (≈ 0.675 µg/mL)
[1]; [5]
  MBC: > 64 µM
  MIC: 2 µM (≈ 0.675 µg/mL)
[1]; [6]
  MBC: > 64 µM
  MIC: 16 µM (≈ 5.4 µg/mL)
Escherichia coli Δ acrAB; E.coli 1411
  MIC: > 64 µM
Escherichia coli Δ acrAB; E.coli 1411 SM (Δ acrAB, AcrAB efflux pump deficient)
  MIC: 16 µM (≈ 5.4 µg/mL)
Escherichia coli O157:H7; Escherichia coli O157:H7 ATCC 35150, PMBN (+) 4 μg/mL, read-out: MIC
  MIC: >256 µM
Escherichia coli O157:H7; Escherichia coli O157:H7 ATCC 700728, PMBN (+) 4 μg/mL, read-out: MIC
  MIC: 128 µM (≈ 43.2 µg/mL)
Escherichia coli O157:H7; Escherichia coli, ATCC35150
  MIC: > 256 µM
Escherichia coli O157:H7; Escherichia coli, ATCC700728
  MIC: > 128 µM
Bacillus Strains
  MIC50: 1 µM (≈ 0.337 µg/mL)
  MIC90: 2 µM (≈ 0.675 µg/mL)
Salmonella Typhimurium; Salmonella Typhimurium ATCC 700720, PMBN (+) 4 μg/mL, read-out: MIC
  MIC: 64 µM (≈ 21.6 µg/mL)
Salmonella Typhimurium; Salmonella enterica, ATCC 700720 / TYPHIMURIUM
  MIC: > 128 µM
Mycobacterium smegmatis; read-out: MBC
  MBC: 8 µM (≈ 2.7 µg/mL)
Mycobacterium smegmatis; read-out: MIC
  MIC: 4 µM (≈ 1.35 µg/mL)
[2]; E. faecalis ERV103 HM-934
  MBC: > 64 µM
  MIC: 2 µM (≈ 0.675 µg/mL)
[2]; [7]
  MBC: 32 µM (≈ 10.8 µg/mL)
  MIC: 2 µM (≈ 0.675 µg/mL)
[2]; E. faecalis R712 HM-335
  MBC: 32 µM (≈ 10.8 µg/mL)
  MIC: 2 µM (≈ 0.675 µg/mL)
[2]; E. faecalis S613 HM-334
  MBC: 64 µM (≈ 21.6 µg/mL)
  MIC: 2 µM (≈ 0.675 µg/mL)
[2]; E. faecalis TX0104 HM-201
  MBC: > 64 µM
  MIC: 2 µM (≈ 0.675 µg/mL)
